Assays:
RXF 393 = assay: Growth inhibition of human RXF393 cells after 48 hrs by sulforhodamine B assay; type: functional; conditions: RXF 393, 48 h
OVCAR-5 = assay: Growth inhibition of human OVCAR5 cells after 48 hrs by sulforhodamine B assay; type: functional; conditions: OVCAR-5, 48 h
UO-31 = assay: Growth inhibition of human UO31 cells after 48 hrs by sulforhodamine B assay; type: functional; conditions: UO-31, 48 h
NCI/ADR-RES = assay: Growth inhibition of human NCI/ADR-RES cells after 48 hrs by sulforhodamine B assay; type: functional
Plasmodium falciparum [1] = assay: Antimalarial activity after 72 hrs against chloroquine-sensitive Plasmodium falciparum D6 infected in erythrocytes by LDH assay; type: functional, organism-based; conditions: D6, 72 h
Plasmodium falciparum [2] = assay: Antimalarial activity after 72 hrs against chloroquine-resistant Plasmodium falciparum W2 infected erythrocytes by LDH assay; type: functional, organism-based; conditions: W2, 72 h
SF-295 = assay: Growth inhibition of human SF295 cells after 48 hrs by sulforhodamine B assay; type: functional; conditions: SF-295, 48 h
HT-29 = assay: Growth inhibition of human HT-29 cells after 48 hrs by sulforhodamine B assay; type: functional; conditions: HT-29, 48 h
[3] = Selectivity index, ratio of TC50 for african green monkey (Cercopithecus aethiops) Vero cells to IC50 for chloroquine-sensitive Plasmodium falciparum D6; type: toxicity, cell-based
MDA-MB-231 = assay: Growth inhibition of human MDA-MB-231 cells after 48 hrs by sulforhodamine B assay; type: functional; conditions: MDA-MB-231, 48 h
MCF7 = assay: Growth inhibition of human MCF7 cells after 48 hrs by sulforhodamine B assay; type: functional; conditions: MCF7, 48 h
HCT-15 = assay: Growth inhibition of human HCT15 cells after 48 hrs by sulforhodamine B assay; type: functional; conditions: HCT-15, 48 h
NCI-H23 = assay: Growth inhibition of human NCI-H23 cells after 48 hrs by sulforhodamine B assay; type: functional; conditions: NCI-H23, 48 h
K562 = assay: Growth inhibition of human K562 cells after 48 hrs by sulforhodamine B assay; type: functional; conditions: K562, 48 h
CAKI-1 = assay: Growth inhibition of human Caki1 cells after 48 hrs by sulforhodamine B assay; type: functional; conditions: CAKI-1, 48 h
SK-MEL-5 = assay: Growth inhibition of human SK-MEL-5 cells after 48 hrs by sulforhodamine B assay; type: functional; conditions: SK-MEL-5, 48 h
DU-145 = assay: Growth inhibition of human DU145 cells after 48 hrs by sulforhodamine B assay; type: functional; conditions: DU-145, 48 h
786-0 = assay: Growth inhibition of human 786-0 cells after 48 hrs by sulforhodamine B assay; type: functional; conditions: 786-0, 48 h
A549 = assay: Growth inhibition of human A549 cells after 48 hrs by sulforhodamine B assay; type: functional; conditions: A549, 48 h
[4] = Cytotoxicity against african green monkey Vero cells after 48 hrs by neutral red assay; type: cell-based; conditions: chlorocebus sabaeus, read-out: TC50
[5] = Growth inhibition of human […] cells after 48 hrs by sulforhodamine B assay; type: functional
KM12 = assay: Growth inhibition of human KM12 cells after 48 hrs by sulforhodamine B assay; type: functional; conditions: KM12, 48 h
SK-OV-3 = assay: Growth inhibition of human SKOV3 cells after 48 hrs by sulforhodamine B assay; type: functional; conditions: SK-OV-3, 48 h
CCRF-CEM = assay: Growth inhibition of human CCRF-CEM cells after 48 hrs by sulforhodamine B assay; type: functional
NCI-H322M = assay: Growth inhibition of human NCI-H322M cells after 48 hrs by sulforhodamine B assay; type: functional
SK-MEL-2 = assay: Growth inhibition of human SK-MEL-2 cells after 48 hrs by sulforhodamine B assay; type: functional; conditions: SK-MEL-2, 48 h
SW-620 = assay: Growth inhibition of human SW620 cells after 48 hrs by sulforhodamine B assay; type: functional; conditions: SW-620, 48 h
SK-MEL-28 = assay: Growth inhibition of human SK-MEL-28 cells after 48 hrs by sulforhodamine B assay; type: functional; conditions: SK-MEL-28, 48 h
UACC-257 = assay: Growth inhibition of human UACC257 cells after 48 hrs by sulforhodamine B assay; type: functional; conditions: UACC-257, 48 h
NCI-H226 = assay: Growth inhibition of human NCI-H226 cells after 48 hrs by sulforhodamine B assay; type: functional; conditions: NCI-H226, 48 h
ACHN = assay: Growth inhibition of human ACHN cells after 48 hrs by sulforhodamine B assay; type: functional
NCI-H522 = assay: Growth inhibition of human NCI-H522 cells after 48 hrs by sulforhodamine B assay; type: functional; conditions: NCI-H522, 48 h
[6] = Growth inhibition of human Hs 578T cells after 48 hrs by sulforhodamine B assay; type: functional
SN12C = assay: Growth inhibition of human SN12C cells after 48 hrs by sulforhodamine B assay; type: functional
[7] = Selectivity index, ratio of TC50 for african green monkey (Cercopithecus aethiops) Vero cells to IC50 for chloroquine-resistant Plasmodium falciparum W2; type: toxicity, cell-based
PC-3 = assay: Growth inhibition of human PC3 cells after 48 hrs by sulforhodamine B assay; type: functional; conditions: PC-3, 48 h
COLO 205 = assay: Growth inhibition of human COLO205 cells after 48 hrs by sulforhodamine B assay; type: functional; conditions: COLO 205, 48 h
HOP-62 = assay: Growth inhibition of human HOP62 cells after 48 hrs by sulforhodamine B assay; type: functional; conditions: HOP-62, 48 h
HCC 2998 = assay: Growth inhibition of human HCC2998 cells after 48 hrs by sulforhodamine B assay; type: functional; conditions: HCC 2998, 48 h
OVCAR-4 = assay: Growth inhibition of human OVCAR4 cells after 48 hrs by sulforhodamine B assay; type: functional; conditions: OVCAR-4, 48 h
LOX IMVI = assay: Growth inhibition of human LOXIMVI cells after 48 hrs by sulforhodamine B assay; type: functional
T47D = assay: Growth inhibition of human T47D cells after 48 hrs by sulforhodamine B assay; type: functional
HL-60 = assay: Growth inhibition of human HL-60(TB) cells after 48 hrs by sulforhodamine B assay; type: functional; conditions: HL-60, 48 h
SR = assay: Growth inhibition of human SR cells after 48 hrs by sulforhodamine B assay; type: functional
HCT-116 = assay: Growth inhibition of human HCT116 cells after 48 hrs by sulforhodamine B assay; type: functional; conditions: HCT-116, 48 h
Malme-3M = assay: Growth inhibition of human MALME-3M cells after 48 hrs by sulforhodamine B assay; type: functional
MDA-MB-435 = assay: Growth inhibition of human MDA-MB-435 cells after 48 hrs by sulforhodamine B assay; type: functional; conditions: MDA-MB-435, 48 h
M14 = assay: Growth inhibition of human M14 cells after 48 hrs by sulforhodamine B assay; type: functional; conditions: M14, 48 h
TK-10 = assay: Growth inhibition of human TK10 cells after 48 hrs by sulforhodamine B assay; type: functional; conditions: TK-10, 48 h
NCI-H460 = assay: Growth inhibition of human NCI-H460 cells after 48 hrs by sulforhodamine B assay; type: functional; conditions: NCI-H460, 48 h

C[C@H]1[C@@H](OCC(O)CO[C@@H]2C[C@@H]3CC[C@@H](C)[C@@H]4CC[C@@]5(C)OO[C@@]34[C@H](O2)O5)O[C@@H]2O[C@@]3(C)CC[C@H]4[C@H](C)CC[C@@H]1[C@@]24OO3 (stereo partly drawn)
GI50 (RXF 393): 0.213 µM
GI50 (OVCAR-5): 17.7 µM
GI50 (UO-31): 0.108 µM
GI50 (NCI/ADR-RES): 0.34 µM
IC50 (Plasmodium falciparum [1]): 0.3 µM
IC50 (Plasmodium falciparum [2]): 1.2 µM
GI50 (SF-295): 9.52 µM
GI50 (HT-29): 0.268 µM
selectivity ratio [3]: > 23800
GI50 (MDA-MB-231): 45.8 µM
GI50 (MCF7): 0.095 µM
GI50 (HCT-15): 0.027 µM
GI50 (NCI-H23): 0.135 µM
GI50 (K562): 0.06 µM
GI50 (CAKI-1): 0.256 µM
GI50 (SK-MEL-5): 0.095 µM
GI50 (DU-145): 13.8 µM
GI50 (786-0): 0.417 µM
GI50 (A549): 0.505 µM
CC50 at 48 h [4]: > 7620 µM
GI50 [5]: 0.024 µM
GI50 (KM12): 0.166 µM
GI50 (SK-OV-3): 21.4 µM
GI50 (CCRF-CEM): 0.104 µM
GI50 (NCI-H322M): 62.5 µM
GI50 (SK-MEL-2): 14.2 µM
GI50 (SW-620): 0.099 µM
GI50 (SK-MEL-28): 9.39 µM
GI50 (UACC-257): 0.257 µM
GI50 (NCI-H226): 61.7 µM
GI50 (ACHN): 0.248 µM
GI50 (NCI-H522): 0.521 µM
GI50 [6]: 12.5 µM
GI50 (SN12C): 0.263 µM
selectivity ratio [7]: > 6430
GI50 (PC-3): 0.035 µM
GI50 (COLO 205): 0.04 µM
GI50 (HOP-62): 13.3 µM
GI50 (HCC 2998): 7.02 µM
GI50 (OVCAR-4): 0.209 µM
GI50 (LOX IMVI): 0.11 µM
GI50 (T47D): 0.027 µM
GI50 (HL-60): 0.062 µM
GI50 (SR): 0.178 µM
GI50 (HCT-116): 0.049 µM
GI50 (Malme-3M): 8.82 µM
GI50 (MDA-MB-435): 0.301 µM
GI50 (M14): 14.9 µM

C[C@H]1[C@@H](OCCO[C@H]2O[C@@H]3O[C@@]4(C)CC[C@H]5[C@H](C)CC[C@@H]([C@H]2C)[C@@]35OO4)O[C@@H]2O[C@@]3(C)CC[C@H]4[C@H](C)CC[C@@H]1[C@@]24OO3
GI50 (RXF 393): 10.6 µM
GI50 (OVCAR-5): 0.083 µM
GI50 (UO-31): 0.469 µM
GI50 (NCI/ADR-RES): 0.243 µM
IC50 (Plasmodium falciparum [1]): 1.7 µM
IC50 (Plasmodium falciparum [2]): 1.2 µM
GI50 (SF-295): 0.8 µM
GI50 (HT-29): 0.041 µM
selectivity ratio [3]: > 48
GI50 (MDA-MB-231): 15 µM
GI50 (MCF7): 0.034 µM
GI50 (HCT-15): 0.019 µM
GI50 (NCI-H23): 1.15 µM
GI50 (K562): 0.014 µM
GI50 (CAKI-1): 0.297 µM
GI50 (SK-MEL-5): 0.316 µM
GI50 (DU-145): 0.22 µM
GI50 (786-0): 0.305 µM
GI50 (A549): 0.063 µM
CC50 at 48 h [4]: > 80 µM
GI50 [5]: < 0.01 µM
GI50 (KM12): 0.081 µM
GI50 (SK-OV-3): 0.798 µM
GI50 (CCRF-CEM): 0.068 µM
GI50 (NCI-H322M): > 100 µM
GI50 (SK-MEL-2): 0.243 µM
GI50 (SW-620): 0.07 µM
GI50 (SK-MEL-28): 32.5 µM
GI50 (UACC-257): 0.343 µM
GI50 (NCI-H226): 0.321 µM
GI50 (ACHN): 0.257 µM
GI50 (NCI-H522): 0.069 µM
GI50 [6]: 0.656 µM
GI50 (SN12C): 0.54 µM
selectivity ratio [7]: > 64
GI50 (PC-3): 0.01 µM
GI50 (COLO 205): 0.49 µM
GI50 (HOP-62): 0.107 µM
GI50 (HCC 2998): 6.92 µM
GI50 (TK-10): 0.206 µM
GI50 (NCI-H460): 0.15 µM
GI50 (OVCAR-4): 0.036 µM
GI50 (LOX IMVI): 0.072 µM
GI50 (T47D): 0.015 µM
GI50 (HL-60): 0.029 µM
GI50 (SR): 0.077 µM
GI50 (HCT-116): 0.026 µM
GI50 (Malme-3M): 0.504 µM
GI50 (MDA-MB-435): 0.572 µM
GI50 (M14): 0.183 µM

From ChEMBL document CHEMBL1140860, “Synthesis and evaluation of dihydroartemisinin and dihydroartemisitene acetal dimers showing anticancer and antiprotozoal activity” (Bioorg Med Chem, 2009)
